# From patent publication US20210116454A1, “METHODS FOR TREATING A HEMATOLOGICAL CANCER AND THE USE OF COMPANION BIOMARKERS FOR 2-(2,6-DIOXOPIPERIDIN-3-YL)-4-((2-FLUORO-4-((3-MORPHOLINOAZETIDIN-1-YL)METHYL)BENZYL)AMINO)ISOINDOLINE-1,3-DIONE” (CELGENE CORPORATION, priority 2019, published 2021)
# Like-named read-outs stand apart in the source and are kept apart here.
# Legend:
# Type in all cases: cell-based
# U2932 = assay: 5-day viable cell number and apoptosis (7-AAD exclusion/Annexin V flow cytometry)
# In short: (§1)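 Each lymphoma line in the panel receives increasing doses of compound. At day 5, viable cell number and apoptosis (Annexin V, 7-AAD exclusion by flow cytometry) are determined.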
# SU-DHL-4 = assay: as above
# In short: as §1
# SU-DHL-16 = assay: as above
# In short: as §1
# Toledo = assay: as above; conditions: Toledo cells, 5 days
# In short: as §1
# HT = assay: as above
# In short: as §1
# SU-DHL-10 = assay: as above
# In short: as §1
# DB = assay: as above; conditions: DB cells, 5 days
# In short: as §1
# Pfeiffer = assay: as above
# In short: as §1
# KARPAS-1106P = assay: as above
# In short: as §1
# OCI-LY-19 = assay: as above; conditions: OCI-LY-19 cells, 5 days
# In short: as §1
# KARPAS-422 = assay: as above
# In short: as §1
# exhausted T cells = assay: SEB-induced T-cell exhaustion restimulation assay, effector cytokine release (MSD); conditions: for EC50: T cell restimulation assay
# [1] = system: Peripheral blood mononuclear cells derived from four healthy donors; assay: Viability of CD3-stimulated PBMCs (Viobility Fixable Dye, flow cytometry)
# Experimental: To establish that this was due to the effect of the compound in promoting Ikaros degradation and not because of a lack of cell proliferation or viability of the CD3-stimulated PBMCs, the effect of Compound 1 on their viability was assessed by flow cytometry. […] Peripheral blood mononuclear cells derived from four healthy donors were exposed to Compound 1 at concentrations of 0.1, 1, 10, or 100 nM for 3, 4, or 7 days, and viability was measured by staining with Viobility™ Fixable Dye. […] The trend in cell viability continued through day 7, with Compound 1 treatment not effecting the viability of the PBMCs.
# DLBCL cell lines = assay: Panel of twenty three DLBCL cell lines, 5-day viable cells and apoptosis
# Experimental: Compound 1 activity was evaluated in a panel of twenty three DLBCL cell lines. The DLBCL panel includes seven cell lines classified as activated B-cell (ABC) subtype, thirteen cell lines classified as the germinal center B-cell (GCB) subtype, and three cell lines classified as primary mediastinal B-cell lymphoma (PMBL). […] Thus, eleven cell lines have a t(8;14)(q24;q32) and/or t(14;18)(q32;q21.3), corresponding to MYC and BCL2 gene rearrangements into an immunoglobulin (IG) heavy chain locus as well as additional rearrangements affecting BCL6 (Table 1). The translocation of MYC, BCL6, or BCL2 to an IG locus usually leads to high levels of mRNA and protein due to the active transcription driven by a constitutively active IG promoter. Therefore, the protein levels of these genes were monitored by Western blots, confirming the overexpression of BCL2, MYC, and/or BCL6 in all the cell lines evaluated (FIG. 1, panel A). Expressions of CRBN protein and known substrates, Ikaros, Aiolos, and ZFP91 were also evaluated (FIG. 1, panels B and C).
# The panel of cell lines were treated with increasing doses of compounds for five days, at which time the number of viable cells was measured and the amount of apoptosis was determined by 7-AAD exclusion and Annexin V staining using flow cytometry. […] Overall, the sensitivity to Compound 1 was independent of cell of origin (COO), since ABC, GCB, and PMBL subtypes were sensitive to Compound 1 (Table 2).
# [2] = Homo sapiens, 120 h, U2932 cells, 5 days
# [3] = Homo sapiens, 120 h, SU-DHL-4 cells, 5 days
# [4] = Homo sapiens, 120 h, SU-DHL-16 cells, 5 days
# [5] = Homo sapiens, 120 h, HT cells, 5 days
# [6] = Homo sapiens, SU-DHL10, 120 h, SU-DHL-10 cells, 5 days
# [7] = Homo sapiens, 120 h, Pfeiffer cells, 5 days
# [8] = Homo sapiens, 120 h, KARPAS-1106P cells, 5 days
# [9] = Homo sapiens, 120 h, KARPAS-422 cells, 5 days
structure (smiles),measurement,setting,value
"O=C1CC[C@H](N2C(=O)c3cccc(NCc4ccc(CN5CC(N6CCOCC6)C5)cc4F)c3C2=O)C(=O)N1 [Compound 1, (S)-2-(2,6-dioxopiperidin-3-yl)-4-((2-fluoro-4-((3-morpholinoazetidin-1-yl)methyl)benzyl)amino)isoindoline-1,3-dione]",EC50,U2932; [2],11900 nM
same,Emax,U2932; [2],69.9%
same,IC50,"U2932; Homo sapiens, 120 h, U2932 cells, 5 days, read-out: % Viable Cells IC50",100 nM
same,IC50,"U2932; Homo sapiens, U2932 cells (Table 3), read-out: IC50",327000 nM
same,% Viable Cells AUC,"U2932; U2932 cells, 5 days",327.1
same,% Viable Cells Emax,"U2932; U2932 cells, 5 days",24.81%
same,% Viable Cells Sensitivity,"U2932; U2932 cells, 5 days",Intermediate (intermediate sensitivity with 15% to 55% cell viability)
same,Apoptosis AUC,"U2932; U2932 cells, 5 days",280.5
same,Apoptosis Sensitivity,"U2932; U2932 cells, 5 days",Intermediate
same,EC50,SU-DHL-4; [3],452 nM
same,Emax,SU-DHL-4; [3],18.9%
same,IC50,"SU-DHL-4; Homo sapiens, 120 h, SU-DHL-4 cells, 5 days, read-out: % Viable Cells IC50",500 nM
same,IC50,"SU-DHL-4; Homo sapiens, SU-DHL-4 cells (Table 3), read-out: IC50",457000 nM
same,% Viable Cells AUC,"SU-DHL-4; SU-DHL-4 cells, 5 days",457.4
same,% Viable Cells Emax,"SU-DHL-4; SU-DHL-4 cells, 5 days",41.79%
same,% Viable Cells Sensitivity,"SU-DHL-4; SU-DHL-4 cells, 5 days",Intermediate (intermediate sensitivity with 15% to 55% cell viability)
same,Apoptosis AUC,"SU-DHL-4; SU-DHL-4 cells, 5 days",155.2
same,Apoptosis Sensitivity,"SU-DHL-4; SU-DHL-4 cells, 5 days",Intermediate
same,EC50,SU-DHL-16; [4],262 nM
same,Emax,SU-DHL-16; [4],18.2%
same,IC50,"SU-DHL-16; Homo sapiens, 120 h, SU-DHL-16 cells, 5 days, read-out: % Viable Cells IC50",120 nM
same,IC50,"SU-DHL-16; Homo sapiens, SU-DHL-16 cells (Table 3), read-out: IC50",360000 nM
same,% Viable Cells AUC,"SU-DHL-16; SU-DHL-16 cells, 5 days",359.7
same,% Viable Cells Emax,"SU-DHL-16; SU-DHL-16 cells, 5 days",30.33%
same,% Viable Cells Sensitivity,"SU-DHL-16; SU-DHL-16 cells, 5 days",Intermediate (intermediate sensitivity with 15% to 55% cell viability)
same,Apoptosis AUC,"SU-DHL-16; SU-DHL-16 cells, 5 days",159.1
same,Apoptosis Sensitivity,"SU-DHL-16; SU-DHL-16 cells, 5 days",Intermediate
same,EC50,"Toledo; Homo sapiens, 120 h",500 nM
same,Emax,"Toledo; Homo sapiens, 120 h",14%
same,IC50,"Toledo; Homo sapiens, 120 h, read-out: % Viable Cells IC50",500 nM
same,% Viable Cells AUC,Toledo,507
same,% Viable Cells Emax,Toledo,52.68%
same,% Viable Cells Sensitivity,Toledo,Intermediate (intermediate sensitivity with 15% to 55% cell viability)
same,Apoptosis AUC,Toledo,114.8
same,Apoptosis Sensitivity,Toledo,Intermediate
same,% Viable Cells AUC,"HT; HT cells, 5 days",434.8
same,% Viable Cells Emax,"HT; HT cells, 5 days",45.18%
same,% Viable Cells Sensitivity,"HT; HT cells, 5 days",Intermediate (intermediate sensitivity with 15% to 55% cell viability)
same,Apoptosis AUC,"HT; HT cells, 5 days",158.2
same,Apoptosis Sensitivity,"HT; HT cells, 5 days",Intermediate
same,EC50,HT; [5],7.82 nM
same,Emax,HT; [5],16.6%
same,IC50,"HT; Homo sapiens, 120 h, HT cells, 5 days, read-out: % Viable Cells IC50",470 nM
same,IC50,"HT; Homo sapiens, HT cells (Table 3), read-out: IC50",435000 nM
same,EC50,SU-DHL-10; [6],16.3 nM
same,Emax,SU-DHL-10; [6],81.9%
same,IC50,"SU-DHL-10; Homo sapiens, SU-DHL10, 120 h, SU-DHL-10 cells, 5 days, read-out: % Viable Cells IC50",10 nM
same,IC50,"SU-DHL-10; Homo sapiens, SU-DHL10, SU-DHL-10 cells (Table 3), read-out: IC50",3400 nM
same,% Viable Cells AUC,"SU-DHL-10; SU-DHL-10 cells, 5 days",3.371
same,% Viable Cells Emax,"SU-DHL-10; SU-DHL-10 cells, 5 days",2.477%
same,% Viable Cells Sensitivity,"SU-DHL-10; SU-DHL-10 cells, 5 days",High (highly sensitive to Compound 1 with less than 6% viable cells remaining (Emax) after treatment)
same,Apoptosis AUC,"SU-DHL-10; SU-DHL-10 cells, 5 days",815.3
same,Apoptosis Sensitivity,"SU-DHL-10; SU-DHL-10 cells, 5 days",High
same,% Viable Cells AUC,DB,1173
same,% Viable Cells Emax,DB,107.1%
same,% Viable Cells Sensitivity,DB,Limited
same,Apoptosis AUC,DB,0
same,Apoptosis Sensitivity,DB,Limited
same,EC50,Pfeiffer; [7],300 nM
same,Emax,Pfeiffer; [7],8.01%
same,IC50,"Pfeiffer; Homo sapiens, Pfeiffer cells (Table 3)",855000 nM
same,% Viable Cells AUC,"Pfeiffer; Pfeiffer cells, 5 days",912.3
same,% Viable Cells Emax,"Pfeiffer; Pfeiffer cells, 5 days",86.19%
same,% Viable Cells Sensitivity,"Pfeiffer; Pfeiffer cells, 5 days",Limited
same,Apoptosis AUC,"Pfeiffer; Pfeiffer cells, 5 days",133.5
same,Apoptosis Sensitivity,"Pfeiffer; Pfeiffer cells, 5 days",Limited
same,EC50,KARPAS-1106P; [8],56.1 nM
same,Emax,KARPAS-1106P; [8],59.8%
same,IC50,"KARPAS-1106P; Homo sapiens, 120 h, KARPAS-1106P cells, 5 days, read-out: % Viable Cells IC50",25 nM
same,IC50,"KARPAS-1106P; Homo sapiens, KARPAS-1106P cells (Table 3), read-out: IC50",111000 nM
same,% Viable Cells AUC,"KARPAS-1106P; KARPAS-1106P cells, 5 days",110.9
same,% Viable Cells Emax,"KARPAS-1106P; KARPAS-1106P cells, 5 days",1.183%
same,% Viable Cells Sensitivity,"KARPAS-1106P; KARPAS-1106P cells, 5 days",High (highly sensitive to Compound 1 with less than 6% viable cells remaining (Emax) after treatment)
same,Apoptosis AUC,"KARPAS-1106P; KARPAS-1106P cells, 5 days",597.7
same,Apoptosis Sensitivity,"KARPAS-1106P; KARPAS-1106P cells, 5 days",High
same,EC50,"OCI-LY-19; Homo sapiens, OCI-LY19, 120 h",80.9 nM
same,Emax,"OCI-LY-19; Homo sapiens, OCI-LY19, 120 h",30.6%
same,IC50,"OCI-LY-19; Homo sapiens, OCI-LY19, 120 h, read-out: % Viable Cells IC50",30 nM
same,% Viable Cells AUC,OCI-LY-19,283.3
same,% Viable Cells Emax,OCI-LY-19,28.11%
same,% Viable Cells Sensitivity,OCI-LY-19,Intermediate (intermediate sensitivity with 15% to 55% cell viability)
same,Apoptosis AUC,OCI-LY-19,293.5
same,Apoptosis Sensitivity,OCI-LY-19,Intermediate
same,EC50,KARPAS-422; [9],32.5 nM
same,Emax,KARPAS-422; [9],70.5%
same,IC50,"KARPAS-422; Homo sapiens, 120 h, KARPAS-422 cells, 5 days, read-out: % Viable Cells IC50",5.4 nM
same,IC50,"KARPAS-422; Homo sapiens, KARPAS-422 cells (Table 3), read-out: IC50",45000 nM
same,% Viable Cells AUC,"KARPAS-422; KARPAS-422 cells, 5 days",45.21
same,% Viable Cells Emax,"KARPAS-422; KARPAS-422 cells, 5 days",1.584%
same,% Viable Cells Sensitivity,"KARPAS-422; KARPAS-422 cells, 5 days",High (highly sensitive to Compound 1 with less than 6% viable cells remaining (Emax) after treatment)
same,Apoptosis AUC,"KARPAS-422; KARPAS-422 cells, 5 days",682.2
same,Apoptosis Sensitivity,"KARPAS-422; KARPAS-422 cells, 5 days",High
same,EC50,exhausted T cells; read-out: EC50 for secreted GM-CSF levels,6 nM
same,EC50,exhausted T cells; read-out: EC50 for secreted IFNγ,10 nM
same,EC50,exhausted T cells; read-out: EC50 for secreted TNFα,10 nM
same,GM-CSF secretion,exhausted T cells; approximately 0.001 μM for 96 hours,3000 pg/mL
same,GM-CSF secretion,exhausted T cells; approximately 0.01 μM for 96 hours,"10,000 pg/mL"
same,GM-CSF secretion plateau,"exhausted T cells; concentrations greater than 0.1 μM, 96 hours","under 15,000 pg/mL"
same,effect on PBMC viability,"[1]; 0.1, 1, 10, or 100 nM for 3, 4, or 7 days",no significant effect
same,viable PBMCs,"[1]; day 3 and day 4, 0.1, 1, 10, or 100 nM",roughly 80%
same,IC50,"DLBCL cell lines; 120 h, eighteen of the twenty three lines, five days of treatment",1 to 400 nM
same,viable cells remaining (Emax),DLBCL cell lines; ten highly sensitive cell lines,less than 6%
